Read-outs that look alike come from different tables or passages of the source.
How the values were obtained:
[1] = Cytotoxicity, CellTiter-Glo cell viability assay in HFF cells; conditions: human
Protocol: (§1) Human foreskin tissue was obtained from the University of Alabama at Birmingham tissue procurement facility with approval from the Institutional Review Board. The tissue was stored at 4° C. in cell culture medium consisting of minimum essential media (MEM) with Earle's salts supplemented with 10% fetal bovine serum (FBS; HyClone, Inc., Logan, Utah) and standard concentration of L-glutamine, amphotericin B (Fungizone), and vancomycin. The tissue was then placed in a phosphate-buffered saline solution, minced, and rinsed to remove the red blood cells. Tissue fragments were then resuspended in a trypsin-EDTA solution and incubated at 37° C. to disperse the cells, which were then collected by centrifugation. Cell pellets were then resuspended in 4 ml culture medium, placed in a 25-cm^2 tissue culture flask, and incubated at 37° C. for 24 h. The culture medium was then replaced with fresh medium and condition of the cells was monitored daily until a confluent cell monolayer was formed. The HFF cells were then expanded through serial passages in standard growth medium of MEM with Earle's salts supplemented with 10% FBS, L-glutamine, penicillin, and gentamicin. Each lot of cells was confirmed to be free of mycoplasma infection and routinely passaged or used for assays at or before passage 10.
(§2) Antiviral and cytotoxicity data were obtained in a series of three to five separate experiments for each virus to provide an accurate estimate of antiviral activity and statistical data. Each assay included positive and negative control compounds as well as infected and uninfected controls to ensure the integrity of the experiment.
(§3) The CPE reduction assays were performed in monolayers of human foreskin fibroblast (HFF) cells (5000/well) in 384-well plates in assay media consisting of MEM with Earle's salts, 2% FBS and standard concentrations of L-glutamine, penicillin and gentamycin. 5000 cells were seeded in 384-well microtiter plates and incubated at 37° C. in a humidified 5% CO2 incubator for 24 hours to allow for formation of confluent monolayers.
(§4) Cell monolayers were infected at a multiplicity of infection (MOI) of approximately 0.005 PFU/cell with virus strains including AdV5. […] Cytopathology was determined by the addition of CellTiter-Glo® reagent (Promega, Madison, Wis.). Concentrations of antiviral test compounds sufficient to reduce CPE by 50% (EC50) were interpolated from the experimental data using standard methods in Microsoft® Excel.

Adenovirus 5 (AdV5) = assay: Cytopathic effects (CPE) reduction assay, AdV5 in HFF cells, 384-well; type: cell-based, human adenovirus; conditions: for SI: CC50/EC50, AdV5
[2] = system: human foreskin fibroblast (HFF) cells; assay: Cytotoxicity, CellTiter-Glo cell viability assay in HFF cells
Protocol: as §1, §2, §3, §4

Human AdV6 [3] = assay: Low dose filociclovir against intravenously administered AdV6 in immunosuppressed hamsters (Example 6)
Protocol: Three dose levels were tested: 1, 3, and 10 mg/kg p.o. q.d.
All hamsters were immunosuppressed using cyclophosphamide (CP) administered intraperitoneally at a dose of 140 mg/kg, and then twice weekly at a dose of 100 mg/kg. Filociclovir in powdered form was suspended in 0.4% carboxymethyl cellulose (Sigma C5678) at 0.1, 0.3, and 1.0 mg/ml and sonicated to visual homogeneity. Filociclovir was made up once weekly, aliquoted into daily portions, and stored at 4° C. Aliquots were allowed to equilibrate to room temperature before dosing.
Hamsters were distributed into 7 groups, 15 hamsters/group (see Table 4), immunosuppressed as described above, and injected i.v. with vehicle (Groups 1-2) or 4×10^10 PFU/kg of AdV6 (Groups 3-7). Groups 1 and 3 received drug vehicle (p.o. q.d.), Groups 2 and 6 received 10 mg/kg filociclovir (p.o. q.d.), Group 4 received 3 mg/kg filociclovir (p.o. q.d.), Group 5 received 1 mg/kg filociclovir (p.o. q.d.), and Group 7 received cidofovir (one dose of 37 mg/kg, followed by 20 mg/kg doses 3 times weekly). For all groups, drug administration started 1 day before challenge, and continued according to the schedule above for the duration of the study.
The body weights and any signs of morbidity of the animals were monitored and recorded daily. At 5 days post challenge, 5 hamsters (designated at the start of the experiment) from each group were sacrificed, and gross pathological observation was performed. Serum and liver were collected and virus burden in liver was determined by TCID50 assay and the serum was analyzed for transaminase levels. The remaining 10 hamsters were sacrificed at 14 days post challenge. Hamsters that became moribund before Day 14 were sacrificed as needed. In addition to the animals judged moribund by observation, we sacrificed all hamsters that lost more than 20% of their original body weight. For all animals, liver tissue was preserved in formalin for histopathological examination.

Human AdV6 [4] = assay: High dose filociclovir against intravenously administered AdV6 in immunosuppressed hamsters (Example 5); conditions: 5 days post challenge, CDV 20 mg/kg 3 times weekly
Protocol: Four dose levels were tested: 10, 30, 60, and 100 mg/kg p.o. q.d. The highest dose was determined based on rat toxicology data.
All hamsters were immunosuppressed using cyclophosphamide (CP). CP was administered intraperitoneally at a dose of 140 mg/kg, and then twice weekly at a dose of 100 mg/kg.
Filociclovir, in powdered form, was suspended in 0.4% carboxymethyl cellulose (Sigma C5678) at 1, 3, 6, and 10 mg/ml and sonicated to visual homogeneity and aliquots stored at 4° C. Aliquots were allowed to equilibrate to room temperature before dosing. Hamsters weighing approximately 100 g were dosed with a 1 ml volume of the appropriate suspension for the 10, 30, 60, and 100 mg/kg dose levels. References to “vehicle” refers to 0.4% carboxymethyl cellulose
The hamsters were divided into 8 groups, 15 hamsters/group, (with the exception of Group 2, which had only 5 hamsters; see Table 3), immunosuppressed, and then injected i.v. with vehicle (Groups 1-2) or 2×10^10 PFU/kg of AdV6 (Groups […]). Groups 1 and 3 received drug vehicle (p.o. q.d.), Group 4 received 10 mg/kg filociclovir (p.o. q.d.), Group 5 received 30 mg/kg filociclovir (p.o. q.d.), Group 6 received 60 mg/kg filociclovir (p.o. q.d.), Groups 2 and 7 received 100 mg/kg filociclovir (p.o. q.d.), and Group 8 received cidofovir (20 mg/kg, 3 times weekly). For all groups, drug administration started 1 day before challenge, and continued according to the schedule above for the duration of the study.
The body weights and any signs of morbidity of the animals were recorded daily. At 5 days post challenge, 5 hamsters (designated at the start of the experiment) from each group (with the exception of Group 2) were sacrificed, and gross pathological observation was performed. Serum and liver samples were collected and the virus burden in liver was determined by a TCID50 assay, and the serum was analyzed for transaminase levels. The remaining 10 hamsters were sacrificed at 14 days post challenge. Hamsters that became visually moribund before Day 14 were sacrificed as needed. In addition to the hamsters observed to be moribund, all hamsters that lost more than 20% of their original body weight were also sacrificed. For the hamsters sacrificed at the conclusion of the experiment and those sacrificed as moribund, serum and liver tissues were collected and banked for possible determination of serum transaminase levels and virus burden in the liver. Liver tissue was preserved in formalin for possible histopathological examination.

AdV5 = conditions: background, Kinchington et al 2005 cited; read-out: IC50 against AdV5; cited from earlier work
[5] = human foreskin fibroblast (HFF) cell monolayers, CC50, HFF cells, run with AdV5 assay, average and SD from five independent experiments
[6] = Human mastadenovirus C, AdV5, HFF cells, 384 well CPE, average and SD from five independent experiments, read-out: EC50
[7] = HFF cells, run with AdV5 assay, average and SD from five independent experiments
[8] = AdV5, HFF cells, 384 well CPE, average and SD from five independent experiments, read-out: EC50

| Structure (SMILES) | CC50 [1, 5] [µM] | SI (Adenovirus 5 (AdV5)) | EC50 (Adenovirus 5 (AdV5); [6]) [µM] | EC50 (Adenovirus 5 (AdV5); [8]) [µM] | also measured |
| --- | --- | --- | --- | --- | --- |
| Nc1nc2c(ncn2COCCO)c(=O)[nH]1 [ACV, acyclovir] | > 100 | 1.0 | > 100 |  |  |
| OC[C@H]1O[C@@H](n2c(Br)nc3cc(Cl)c(Cl)cc32)[C@H](O)[C@@H]1O [BDCRB, bromodichlororibobenzimidazole] |  | 1.3 |  | 70 ± 39 | CC50 [2, 7]: 91 ± 13 µM |
| Nc1ccn(C[C@@H](CO)OCP(=O)(O)O)c(=O)n1 [CDV, cidofovir, reference compound] | 97 ± 4 |  |  |  | AdV6-induced liver damage, serum transaminase (ALT) (Human AdV6 [3]; CDV, 5 days post challenge): completely prevented AdV6-induced liver pathology; AdV6 replication in the liver (Human AdV6 [3]; CDV, 5 days post challenge, TCID50): completely prevented AdV6 replication in the liver; body weight loss (Human AdV6 [3]; cidofovir 37 mg/kg once, then 20 mg/kg 3 times weekly): completely reversed body weight loss; animals with elevated serum transaminase levels (ALT) (Human AdV6 [4]; filociclovir p.o. q.d. groups): none; virus burden in the liver (Human AdV6 [4]; TCID50): very low to nonquantifiable levels; EC50 (Adenovirus 5 (AdV5); Human mastadenovirus C, HFF): 4 ± 2 µM |
| CCCCCCCCCCCCCCCCOCCCOP(=O)(O)CO[C@H](CO)Cn1ccc(N)nc1=O [CMX001, brincidofovir] | 0.83 ± 0.7 | 27.7 | < 0.03 |  |  |
| O=c1[nH]c(=O)n([C@@H]2O[C@H](CO)[C@@H](O)[C@@H]2F)cc1I [FIAU] |  | 1.0 |  | > 100 | CC50 [2]: > 100 µM |
| Nc1nc(O)c2ncn(COC(CO)CO)c2n1 [GCV, ganciclovir] | > 100 |  |  |  | IC50 (AdV5): 66 ± 15.1 µM; EC50 (Adenovirus 5 (AdV5); Human mastadenovirus C, HFF): 66 ± 15.1 µM; IC50 (Adenovirus 5 (AdV5); Human mastadenovirus C, HFF, read-out: IC50 value against AdV5): 66 µM |
| O=c1[nH]c(=O)n([C@H]2C[C@H](O)[C@@H](CO)O2)cc1I [IDU, idoxuridine] | > 100 | 1.0 | > 100 |  |  |
| O=c1[nH]c(=O)n([C@@H]2CO[C@H](CO)O2)cc1/C=C/Br [L-BHDU, L-Bromovinyl-Hydroxymethyl-Dioxolan Uracil] |  | 1.0 |  | > 100 | CC50 [2]: > 100 µM |
| Cc1cn([C@H]2C[C@H](O)[C@]3(CO)C[C@H]23)c(=O)[nH]c1=O [N-MCT, N-methanocarbathymidine] |  | 1.3 |  | 57 ± 47 | CC50 [2, 7]: 72 ± 33 µM |
| Nc1nc2c(ncn2CCC(CO)CO)c(=O)[nH]1 [PCV, penciclovir] | > 100 | 1.0 | > 100 |  |  |
| O=C(O)P(=O)(O)O [PFA, foscarnet] | > 1000 | 1.0 | > 1000 |  |  |
| Nc1ncnc2c1ncn2CCOCP(=O)(O)O [PMEA, adefovir] |  | 2.1 | 48 ± 8 |  | CC50 [1]: > 100 µM |
